Legend:
[1] = system: p75NTR; assay: Proteolytic processing of p75NTR (Western blot, immunofluorescence, cell fractionation); type: cell-based, rat
Procedure: Primary cultures from choroid plexus epithelial cells from P3-P5 Wistar rats were prepared as described previously. Cells were grown to confluence for 5-7 days and serum starved for 2 hours. Cultures were maintained at 37°C in a humidified atmosphere containing 5% CO2, and cultivated for 7 days prior to experimentation. Human analogue peptides corresponding to Aβ1-40 and scrambled Aβ1-40 (AnaSpec, Inc.) were added. […] For ICD p75NTR detection primary cultures cells proteasome inhibitor epoxomycin (1 μM) (Sigma) was applied 1.5 hours prior to Aβ treatment.
For Western blot analysis cultures cells were washed once with ice-cold PBS and lysed in PIK buffer (150 mM NaCl, 20 mM TrisHCl pH 7.4, 1% NP40 and protease inhibitors: 1 μg/mL aprotinin, 1 μg/mL leupeptin and 1 μg/mL phenylmethylsulfonyl fluoride, PMSF). For cell fractionation cells were lysed with C buffer (10 mM HEPES, 60 mM KCl, 1 mM EDTA, 0.075% Triton X100, 1 mM DTT with protease inhibitors. The pellet nuclei was obtained by centrifugation 325 g, 4 minutes and resuspended in NB buffer (20 mM TrisHCl pH 8, 420 mM NaCl, 15 mM MgCl2, 0.2 mM EDTA, 25% Glicerol and protease inhibitors). Thereafter, the nuclei supernatant were obtained after centrifugation 9000 g, 10 minutes. After running the samples in acrylamide gels, proteins were transferred (immobilon, Bio-Rad) and membranes were incubated with the corresponding primary at 4°C overnight. Afterwards, membranes were washed and incubated with secondary antibodies. Membranes were washed several times with Tween-TBS and developed with ECL plus (Amersham). Western blot membranes were re-blotted with unrelated proteins (α-actin) as an internal standard and normalized for protein load. Densitometric analysis was performed using ImageJ software (NIH Image). A representative blot is shown from a total of at lest three independent experiments.
Immunocytochemistry was performed with primary cultures from choroid plexus plated on 20 mm coverslips and fixed. Rat and human choroid plexus were also fixed with 4% paraformaldehyde and processed for histochemical analysis. […]

[2] = system: choroid plexus epithelial cells; assay: Cell death quantification with Cell Death Detection ELISAPLUS kit; type: cell-based, rat; details: primary choroid plexus epithelial cells, Aβ40 5 mg/ml, 24 h, ELISA PLUS kit
Procedure: Primary cultures from choroid plexus epithelial cells from P3-P5 Wistar rats were prepared as described previously. Cells were grown to confluence for 5-7 days and serum starved for 2 hours. Cultures were maintained at 37°C in a humidified atmosphere containing 5% CO2, and cultivated for 7 days prior to experimentation. Human analogue peptides corresponding to Aβ1-40 and scrambled Aβ1-40 (AnaSpec, Inc.) were added. 24 hours after stimulation, cells were either fixed for immunocytochemical analysis or homogenized for immunoblot determination. For ICD p75NTR detection primary cultures cells proteasome inhibitor epoxomycin (1 μM) (Sigma) was applied 1.5 hours prior to Aβ treatment.
For cell death quantification, after incubation for 24 h with Aβ40 (5 mg/ml), choroid plexus epithelial cells in vitro were measured with Cell Death Detection ELISAPLUS kit (Roche Diagnostics) as described previously.

Aβ1-40: Human analogue peptides corresponding to Aβ1-40 (AnaSpec, Inc.)
release of p75NTR-ICD fragment (19 KDa) ([1]; Aβ1-40 2.5 μg/mL for 15, 30 and 60 minutes, proteasome inhibitor pre-treatment, Western blot with antibody 9992): induced a release of ICD fragment at 15 and 30 minutes
nuclear accumulation of p75NTR-ICD, immunofluorescence ([1]; Aβ1-40 2.5 μg/mL, 60 minutes, proteasome inhibitor 1.5 hours before, confocal microscopy): considerable accumulation of p75NTR-ICD occurred in the majority of nuclei
p75NTR-ICD 19 KDa band in nuclear extracts ([1]; Aβ1-40 for 15, 30 and 60 minutes, nuclear and cytoplasmic extracts, Western blot with antibody 9992): enriched in nuclear extracts
increase of cell death upon control cells [2]: 29%
